Measured values taken from the NIST ThermoML archive (doi:10.1016/j.tca.2014.09.022).
± gives the expanded uncertainty stated by the source.

Experiments:
[1] = Molar enthalpy of transition or fusion; settings: DSC
[2] = DTA

Compound	Molar enthalpy of transition or fusion ([1]; Crystal) [kcal/mol]	Triple point temperature ([2]; Crystal) [K]	Molar enthalpy of transition or fusion ([1]; Crystal 1) [kcal/mol]	Molar enthalpy of transition or fusion ([1]; Crystal 2) [kcal/mol]	Triple point temperature ([2]; Crystal 1) [K]	Triple point temperature ([2]; Crystal 2) [K]
O=C(O)CCCC(=O)O [1,5-pentanedioic acid]	5.02 ± 0.287	369.65 ± 2.5	–	–	–	–
Oc1ccc(O)cc1 [1,4-benzenediol]	5.68 ± 0.311	445.65 ± 2.5	–	–	–	–
CCCCCCCCCCCCCCCCCCCCCCCCCCCC [octacosane]	–	–	15.3 ± 0.86	8.49 ± 0.478	335.65 ± 2.5	330.65 ± 2.5
O=C(O)CCCCCCCCC(=O)O [1,10-decanedioic acid]	10.7 ± 0.574	405.65 ± 2.5	–	–	–	–
OC[C@@H](O)[C@@H](O)CO [meso-1,2,3,4-butanetetrol]	9.54 ± 0.502	390.15 ± 3	–	–	–	–
CNC(N)=O [methylurea]	3.05 ± 0.177	368.15 ± 5	–	–	–	–
OCCCCCCCCCCO [1,10-decanediol]	10.7 ± 0.574	344.65 ± 2.5	–	–	–	–
